# Laboratory results: PMC4792161, “A novel pyrazole derivative protects from ovariectomy-induced osteoporosis through the inhibition of NADPH oxidase” (Scientific Reports, 2016)
# Where a name gives a salt, the structure may show the parent alone.
# Columns and labels:
# [1] = system: OVX-induced osteoporotic ddY mice; assay: Femur weights (wet, dry, ash) in OVX mice; type: in vivo
# Experimental: The right sides of femur and tibia were weighed and then dried at 120 °C for 8 hours. The dried bones were carbonized at 800 °C for 6 hours in a furnace (Daihan Scientific, Korea) to detect ash absolute weights, after measurement of BMD and failure load. To reduce the individual body weight differences, the relative weight (%) was calculated using body weight at sacrifice and absolute weight as [Relative bone weights = (Absolute bone weight/Body weight at sacrifice) ×100]. In addition, ashed bones were ground and dissolved in nitric acid. In diluted solution, Ca and P contents were calculated (mg/g bone) using an orthocresolphthalein complex and enzyme methods, respectively. The Ca/P ratio (%) was calculated as (Tibia Ca contents/Tibia P contents) ×100.
# [2] = system: BMMs; assay: Phagocytosis assay, FITC-zymosan uptake; type: cell-based, C57BL/6 mice; conditions: pretreated 1 hour
# Experimental: After the incubations, cells were washed three times with PBS, and the quantities of internalized fluorescent particles were determined by flow cytometry. FITC-zymosan uptake was quantified as mean fluorescence intensity (MFI).
# (§1) Supplementary Figure S3. (A) Ewha-18278 compounds can not directly scavenge superoxide or other reactive species in vitro. ROS (H2O2) measured with lucigenin. Reaction mixtures contained 1 […]
# (§2) Luminescence measured over 30 min at 37
# (§3) °C with luminometor (Gloma X luminometor, Turner BioSystem). […]
# (§4) the phagocytosis of zymosan. […]
# (§5) incubated with FITC-zymosan particles, and internalized fluorescence was measured by flow cytometry. The data are presented as the MFI of internalized FITC. Data represent mean ± S.D. […]
# [3] = Direct ROS (H2O2) scavenging in vitro; conditions: 20 μM compound, 1 mM H2O2
# Description: Based on the notion that the differentiation of OCs is mediated by Nox1/2/4-dependent ROS generation, we have performed a high throughput enzyme inhibitor screening assay to identify chemical compounds having Nox1/2/4 inhibitory activity for the development of an anti-osteoporosis agent. Purified Drosophila membranes expressing human Nox1, Nox2, or Nox4 were used to monitor ROS production by determining the oxidation of lucigenin, evident as chemiluminescence, in the absence or presence of chemical compound[18]. A chemical library containing 31,000 compounds was screened to identify Nox inhibitors. […] (Fig. 1B, Supplementary Fig. S2). […] Moreover, we investigated whether Ewha-18278 can directly scavenge ROS in vitro.
# as §1, §2, §3, §4, §5
# [4] = system: OVX-induced osteoporotic ddY mice; assay: OVX-induced osteoporosis in ddY mice, overall anti-osteoporotic effect; type: in vivo
# Experimental: Risedronate sodium (2.5 mg/kg) served as a reference compound. […] Histopathology and histomorphometrical analyses including trabecular bone volume (BV/TV), trabecular bone number (Tb.N), trabecular bone length (Tb.Le), trabecular bone thickness (Tb.Th), cortical bone thickness (Ct.Th), OC number (N.Oc), bone mineral density (BMD) and bone strength (failure load, FL) were conducted.
# The study was reviewed and approved by the Institutional Animal Care and Use Committee (IACUC) of Center for Laboratory Animal Sciences, Ewha Industry-University Cooperation Foundation, Ewha Womans University. Experimental methods were carried out in accordance with the approved ethic guidelines in Ewha Industry-University Cooperation Foundation, Ewha Womans University. Beginning 4 weeks after OVX, the female ddY mice received 2.5, 5, 10, or 20 mg/kg of #18–278, 2.5 mg/kg of risedronate, or vehicle once daily for 28 days. The Changes in body weight, bone weight, bone mineral density (BMD), failure load (FL), bone calcium (Ca), inorganic phosphorus (P) contents, histology and histomorphology were monitored. Serum osteocalcin and bone specific alkaline phosphatase (bALP) were monitored in mice receiving Ewha-18278.
# [5] = system: OVX-induced osteoporotic ddY mice; assay: Number of OBs in cortical bone lining of OVX mice (H&E); conditions: mouse, in vivo
# Experimental: Sham OVX Risedronate 20 mg/kg 10 mg/kg 5 mg/kg 2.5 mg/kg20.0mg/kg 10.0mg/kg 5.0mg/kg 2.5mg/kg […]
# Supplementary Figure S8. […] CB number was […]
# counted in osteoblastic lining in cortical bone with H&E staining. a p<0.005 and b p<0.005 as compared with OVX and Risendronate, respectively, c p<0.005 and d p<0.005 as compared with 20
# [6] = 2.5 mg/kg oral once daily 28 days
# [7] = 5 mg/kg oral once daily 28 days
# [8] = 10 mg/kg oral once daily 28 days
# [9] = 20 mg/kg oral once daily 28 days
smiles,measurement,setting,value
"CCCc1c(-c2ccccc2)nn(-c2ccccn2)c1O [Ewha-18278, 3-phenyl-1-(pyridin-2-yl)-4-propyl-1H-5-hydroxypyrazole HCl]","Femur absolute weights, Ash",[1]; [6],0.030 g
same,"Femur absolute weights, Dry",[1]; [6],0.065 g
same,"Femur absolute weights, Wet",[1]; [6],0.097 g
same,"Femur absolute weights, Ash",[1]; [7],0.037 g
same,"Femur absolute weights, Dry",[1]; [7],0.065 g
same,"Femur absolute weights, Wet",[1]; [7],0.093 g
same,"Femur absolute weights, Ash",[1]; [8],0.038 g
same,"Femur absolute weights, Dry",[1]; [8],0.067 g
same,"Femur absolute weights, Wet",[1]; [8],0.096 g
same,"Femur absolute weights, Ash",[1]; [9],0.038 g
same,"Femur absolute weights, Dry",[1]; [9],0.067 g
same,"Femur absolute weights, Wet",[1]; [9],0.096 g
same,phagocytosis of FITC-zymosan (MFI) vs DMSO,[2],n.s.
same,change in hydrogen peroxide concentration (ROS scavenging),[3],had no effect
same,anti-osteoporotic effects,[4]; 2.5 mg/kg,did not produce obvious favorable anti-osteoporotic effects
same,anti-osteoporotic effects compared to risedronate (2.5 mg/kg/day for 28 days),[4]; 10 mg/kg/day for 28 days,similar
same,cortical bone thickness compared to risedronate,[4]; OVX mice,significantly increased cortical bone thickness
same,number of OCs in the tibia and femur,[4]; compared to control mice,decreased number of OCs
same,optimal effective dosage,"[4]; oral once daily 28 days, OVX mice",10 mg/kg
same,number of OBs in tibia and femur compared to OVX control mice,[5],increased
